Measured values: patent publication EP4737448A1, “SARM1 ENZYME ACTIVITY INHIBITOR AND USE THEREOF” (Artivila (ShenZhen) Innovation Center, Ltd., priority 2023, dated 2025)

Tests used:
SARM1 = target: T1, SARM1 (Homo sapiens, UniProt Q6SZW1); assay: In vitro biochemical assay for inhibiting SARM1 enzymatic activity (PC6 fluorescence, NAD substrate, NMN activator); conditions: 0.05 µg/mL SARM1, 50 µM NAD, 50 µM PC6, 50 µM NMN, 10 min pre-incubation, 30 min at room temperature
T1 construct: the inventor produces full-length SARM1 for NADase activity assays and for screening; His (C); made in house; host or cells: HEK293 cells (transient transfection; digitonin lysate supernatant, not purified further)
T1 sequence (Q6SZW1 28-724): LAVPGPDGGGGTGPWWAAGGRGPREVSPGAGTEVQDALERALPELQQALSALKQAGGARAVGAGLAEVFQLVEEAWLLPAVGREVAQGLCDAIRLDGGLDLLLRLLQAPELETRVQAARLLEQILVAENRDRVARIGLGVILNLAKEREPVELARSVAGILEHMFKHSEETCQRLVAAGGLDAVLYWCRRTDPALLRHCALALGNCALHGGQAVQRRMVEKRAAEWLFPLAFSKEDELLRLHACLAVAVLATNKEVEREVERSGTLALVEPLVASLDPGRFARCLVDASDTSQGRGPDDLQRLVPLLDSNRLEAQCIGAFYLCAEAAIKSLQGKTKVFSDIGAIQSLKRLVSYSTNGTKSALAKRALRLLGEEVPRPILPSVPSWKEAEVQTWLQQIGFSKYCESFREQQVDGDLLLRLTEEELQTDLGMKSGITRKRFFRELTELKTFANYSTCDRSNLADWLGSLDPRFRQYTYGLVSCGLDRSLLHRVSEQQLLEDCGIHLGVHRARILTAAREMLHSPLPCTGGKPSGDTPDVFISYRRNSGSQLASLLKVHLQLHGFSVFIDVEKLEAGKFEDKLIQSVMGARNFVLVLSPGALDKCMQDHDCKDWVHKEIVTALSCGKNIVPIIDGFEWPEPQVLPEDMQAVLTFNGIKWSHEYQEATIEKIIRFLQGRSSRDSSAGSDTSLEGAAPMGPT
Method: Compounds to be tested were stocked at 200 µM or 10 mM (in DMSO), and further diluted to the desired compound concentration for the in vitro SARM1 enzyme assay and inhibitor screening.
The gene sequence encoding SARM1 protein was amplified by PCR and the PCR amplification product was constructed into the pcDNA3.1-HIS-C plasmid. This construction was completed by YouBio Biological Technology (Hunan, China).
HEK293 cells were cultured in DMEM in a 10 cm dish. The next day, cells were transfected with 15 µg of the pcDNA3.1-SARM1-HIS-C expression plasmid.
Cells were harvested 48 hours after the transfection. The SARM1 protein expressed in cells was obtained through cell lysis by digitonin, which was used for in vitro activity assay. The specific process was as follows:
Cells were digested and detached from the dish using trypsin-EDTA, centrifuged at 1000 rpm for 5 minutes, washed once with PBS, then resuspended in PBS containing 100 µM digitonin at 0.6 mL PBS for the cells in 10 cm dish and lysed for 5 min. The cells were added with trypan blue and observed under a microscope. More than 90% of the cells were confirmed to be lysed. The cells were centrifuged at 5000 rpm for 10 min, and the supernatant containing SARM1 protein was collected.
The compound was added into a solution of 50 mM Tris-HCl (pH 7.5) containing 0.05 µg/mL SARM1 to achieve a concentration of 200 µM, and then serially diluted 6 times, where each dilution was carried out by taking half of the previous solution and adding an equal volume of 50 mM Tris-HCl (pH 7.5) containing 0.05 µg/mL SARM1, yielding a set of final concentrations of the compound of either 200, 100, 50, 25, 12.5, 6.25 and 3.125 µM, or 200, 50, 12.5, 3.125, 0.78, 0.195 and 0.049 µM. No inhibitor was added in the control group. All mixtures were incubated at room temperature for 10 min.
Subsequently, 50 µM NAD, 50 µM PC6 as substrate and 50 µM NMN as activator were added to the SARM1 protein incubated with the inhibitor and reacted for 30 min at room temperature. Wherein, the aforementioned concentrations of each component represent their respective final concentrations in the reaction system
During the reaction, the fluorescence spectrum dynamics of PC6 was detected by a microplate reader, with excitation and emission wavelengths set at 390 nm and 520 nm, respectively. The activity of the protein was expressed as the reaction rate and half maximal inhibitory concentration was calculated. The higher the reaction rate, the stronger the protein activity, and the lower the inhibitory efficiency of the compound.
Dose-response curves for inhibition of SARM1 enzymatic activity for NAD by the compounds were plotted using the above method.

[1] = system: axons of dorsal root ganglia explants; assay: Wallerian degeneration assay of axon in mouse DRG explant culture; type: cell-based, C57BL/6 mice; conditions: 10 µM compound, 2 h pretreatment, 24 h post axonal transection
Method: Dorsal root ganglia were dissected from two-month-old male C57BL/6 mice and placed into a 35-mm culture dish containing ice-cold HBSS buffer. Extra tissue surrounding each dorsal ganglion was removed using a scalpel, and the ganglia were cut into 2-3 explant pieces. These explants were seeded into wells of a 96-well plate pre-coated with 100 ng/mL Matrigel (Corning), added with 100 µL of DRG medium (Neurobasal medium (Gibco) containing 2% B-27 (Gibco), 1% GlutaMAX (Gibco) and 10 ng/mL NGF (MCE)), and cultured in a 37°C incubator for one week. The medium was half- replaced on the fourth day and the experiments were counted on the eighth day.
Refer to methods reported in literatures in the related art (Gerdts J, Sasaki Y, Vohra B, Marasa J, Milbrandt J. Image-based screening identifies novel roles for IkappaB kinase and glycogen synthase kinase 3 in axonal degeneration. J Biol Chem. 2011 Aug 12;286(32):28011-8) for the definition and measurement principle of the degeneration index of axon. In the present disclosure, the measurement method is detaild below.
0.1 µL of 10 mM compound to be tested was added to 100 µL of DRG medium to prepare a new medium containing 10 µM compound to be tested. The medium in the 96-well plate was removed and replaced with the new medium containing the compound to be tested. Explant pieces of dorsal ganglia were incubated with compounds in a 37°C incubator for 2 h of pre-protection. Following this 2-hour pretreatment, axons were transcted near the explants tissue piece using a glass microelectrode. At 0 h and 24 h post axonal transection, brightfield images of axons in the same region were captured using a microscope (Olympus) with 20× objective. Axonal integrity was assessed using an in-house developed script. The results were categorized based on the degree of protection into: (A) >50% and (B) 20-50%.

| SMILES | IC50 (SARM1) [µM] | Degree of protection against axonal Wallerian Degeneration [1] |
| --- | --- | --- |
| O=C1C(Cc2ccc(Cl)cc2)CCN1c1ccc(-c2ccncc2)cn1 (stereo not shown) [Compound 6, 1-([3,4'-bipyridin]-6-yl)-3-(4-chlorobenzyl)pyrrolin-2-one] | 1 to 10 | A ((A) >50%) |
| O=C1C(Cc2ccc(Cl)cc2)CCN1c1ccc(-c2ccncc2)nc1 (stereo not shown) [Compound 7] | 1 to 10 | A ((A) >50%) |
| O=C1C(Cc2ccc(F)cc2)CCN1c1ccc(-c2ccncc2)cc1 (stereo not shown) [Compound 15, 3-(4-fluorobenzyl)-1-(4-(pyridin-4-yl)phenyl)pyrrolidin-2-one] | 1 to 10 | B ((B) 20-50%) |
| Cc1ccc(CC2CCN(c3ccc(-c4ccncc4)cc3)C2=O)cc1 (stereo not shown) [Compound 17, 3-(4-methylbenzyl)-1-(4-(pyridin-4-yl)phenyl)pyrrolidin-2-one] | 1 to 10 | A ((A) >50%) |
| N#Cc1cc(-c2ccncc2)ccc1N1CCC(Cc2ccc(Cl)cc2)C1=O (stereo not shown) [Compound 21, 2-(3-(4-chlorobenzyl)-2-pyrrolidinone-1-yl)-5-(pyridin-4-yl)benzonitrile] | 10 to 30 | B ((B) 20-50%) |
| O=C1C(Cc2ccccc2)CCN1c1ccc(-c2ccncc2)cc1 (stereo not shown) [Compound 24, 3-benzyl-1-(4-(pyridin-4-yl)phenyl)pyrrolidin-2-one] | 1 to 10 | B ((B) 20-50%) |
| O=C1C(Cc2ccc(Cl)nc2)CCN1c1ccc(-c2ccncc2)cc1 (stereo not shown) [Compound 25, 3-((6-chloropyridin-3-yl)methyl)-1-(4-(pyridin-4-yl)phenyl)pyrrolidin-2-one] | 1 to 10 | A ((A) >50%) |
| O=C1C(Cc2cc(F)cc(F)c2)CCN1c1ccc(-c2ccncc2)cc1 (stereo not shown) [Compound 33, 3-(3,5-difluorobenzyl)-1-(4-(pyridin-4-yl)phenyl)pyrrolidin-2-one] | 1 to 10 | A ((A) >50%) |
| O=C1C(Cc2ccc(F)cc2F)CCN1c1ccc(-c2ccncc2)cc1 (stereo not shown) [Compound 41, 3-(2,4-difluorobenzyl)-1-(4-(pyridin-4-yl)phenyl)pyrrolidin-2-one] | 1 to 10 | B ((B) 20-50%) |
| O=C1C(Cc2ccc(F)cc2)CCN1c1ccc(-c2ccncc2)nn1 (stereo not shown) [Compound 55, 3-(4-fluorobenzyl)-1-(6-(pyridin-4-yl)pyridazin-3-yl)pyrrolidin-2-one] | < 1 | B ((B) 20-50%) |
| S=C1C(Cc2ccc(Cl)cc2)CCN1c1ccc(-c2ccncc2)nn1 (stereo not shown) [Compound 58, 3-(4-chlorobenzyl)-1-(6-(pyridin-4-yl)pyridazin-3-yl)pyrrolidin-2-thione] | < 1 | B ((B) 20-50%) |
| C#Cc1ccc(CC2CCN(c3ccc(-c4ccncc4)cc3)C2=O)cc1 (stereo not shown) [Compound 89, 3-(4-ethynylbenzyl)-1-(4-(pyridin-4-yl)phenyl)pyrrolidin-2-one] | 10 to 30 |  |
| O=C1C(Cc2ccc(/C=C/Cl)cc2)CCN1c1ccc(-c2ccncc2)cc1 (stereo not shown) [Compound 90, (E)-3-(4-(2-chloroethenyl)benzyl)-1-(4-(pyridin-4-yl)phenyl)pyrrolidin-2-one] | 1 to 10 |  |
| CC(=O)c1ccc(CC2CCN(c3ccc(-c4ccncc4)cc3)C2=O)cc1 (stereo not shown) [Compound 91, 3-(4-acetylbenzyl)-1-(4-(pyridin-4-yl)phenyl)pyrrolidin-2-one] | 10 to 30 |  |

Now from value to molecule, other results behind:

| IC50 (SARM1) [µM] | SMILES | Degree of protection against axonal Wallerian Degeneration [1] |
| --- | --- | --- |
| < 1 | O=C1C(Cc2ccc(F)c(F)c2)CCN1c1ccc(-c2ccncc2)cc1 (racemic) [Compound 30, 3-(3,4-difluorobenzyl)-1-(4-(pyridin-4-yl)phenyl)pyrrolidin-2-one] | A ((A) >50%) |
| < 1 | O=C1[C@H](Cc2ccc(F)c(F)c2)CCN1c1ccc(-c2ccncc2)cc1 (single isomer, unassigned) [Compound 81] | A ((A) >50%) |
| < 1 | O=C1[C@H](Cc2ccc(F)c(F)c2)CCN1c1ccc(-c2ccncc2)cc1 (single isomer, unassigned) [Compound 82] | A ((A) >50%) |
| < 1 | O=C1C(Cc2ccc(Cl)cc2)CCN1c1ccc(-c2ccncc2)cc1 (stereo not shown) [Compound 1, 3-(4-chlorobenzyl)-1-(4-(pyridin-4-yl)phenyl)pyrrolidin-2-one] | A ((A) >50%) |
| < 1 | O=C1C(Cc2ccc(Cl)cc2)CON1c1ccc(-c2ccncc2)cc1 (stereo not shown) [Compound 3, 4-(4-chlorobenzyl)-2-(4-(pyridin-4-yl)phenyl)isoxazolidin-3-one] | B ((B) 20-50%) |
| < 1 | O=C1C(Cc2ccc(Cl)cc2)CCN1c1cnc(-c2ccncc2)cn1 (stereo not shown) [Compound 20, 3-(4-chlorobenzyl)-1-(5-(pyridin-4-yl)pyrazin-2-yl)pyrrolidin-2-one] | B ((B) 20-50%) |
| < 1 | O=C1C(Cc2ccc(Cl)s2)CCN1c1ccc(-c2ccncc2)cc1 (stereo not shown) [Compound 29, 3-((5-chlorothiophen-2-yl)methyl)-1-(4-(pyridin-4-yl)phenyl)pyrrolidin-2-one] | A ((A) >50%) |
| < 1 | O=C1C(Cc2ccc(Cl)cc2)CCN1c1ccc(-c2ccncc2Cl)cc1 (stereo not shown) [Compound 34, 3-(4-chlorobenzyl)-1-(4-(3-chloropyridin-4-yl)phenyl)pyrrolidin-2-one] | A ((A) >50%) |
| < 1 | O=C1C(Cc2ccc(Cl)cc2)CCCN1c1ccc(-c2ccncc2)nn1 (stereo not shown) [Compound 53, 3-(4-chlorobenzyl)-1-(6-(pyridin-4-yl)pyridazin-3-yl)piperidin-2-one] | B ((B) 20-50%) |
